Values after ≈ are worked out from the molar mass of the structure shown.
Tests used:
[1] = tested on: Proteus vulgaris; experiment: In vitro antibacterial activity against Proteus vulgaris CNUR 6; type: functional
[2] = tested on: Staphylococcus aureus; experiment: In vitro antibacterial activity against Staphylococcus aureus MPR 5; type: functional
[3] = tested on: Proteus mirabilis; experiment: In vitro antibacterial activity against Proteus mirabilis OBT 505; type: functional
[4] = tested on: Streptococcus pneumoniae; experiment: In vitro antibacterial activity against Streptococcus pneumoniae I 0.43; type: functional
[5] = Mean MIC against gram positive; type: functional
[6] = target: DNA gyrase (Escherichia coli, UniProt P0AES4+P0AES6); experiment: Inhibitory effect against Escherichia coli Gyrase in Supercoiling assay; type: protein-complex assay
[7] = tested on: Staphylococcus aureus; experiment: In vitro antibacterial activity against Staphylococcus aureus M-R POMM 6214; type: functional
[8] = tested on: Haemophilus influenzae; experiment: In vitro antibacterial activity against Haemophilus influenzae; type: functional
[9] = tested on: Staphylococcus aureus; experiment: In vitro antibacterial activity against Staphylococcus aureus ATCC 29213; type: functional
[10] = tested on: Staphylococcus aureus; experiment: In vitro antibacterial activity against Staphylococcus aureus CPX-R OBT 687; type: functional
[11] = tested on: Enterobacter cloacae; experiment: In vitro antibacterial activity against Enterobacter cloacae OMNFI 174; type: functional
[12] = tested on: Escherichia coli; experiment: In vitro antibacterial activity against Escherichia coli 120; type: functional
[13] = tested on: Streptococcus pyogenes; experiment: In vitro antibacterial activity against Streptococcus pyogenes OMNFI BI; type: functional
[14] = tested on: Escherichia coli; experiment: In vitro antibacterial activity against Escherichia coliCPX-R OBT 431; type: functional
[15] = Mean MIC against gram negative; type: functional
[16] = tested on: Enterococcus faecalis; experiment: In vitro antibacterial activity against Enterococcus faecalis LEP Br; type: functional
[17] = tested on: Klebsiella pneumoniae; experiment: In vitro antibacterial activity against Klebsiella pneumoniae ATCC 10031; type: functional
[18] = tested on: Pseudomonas aeruginosa; experiment: In vitro antibacterial activity against Pseudomonas aeruginosa OBT 307; type: functional
[19] = tested on: Escherichia coli; experiment: In vitro antibacterial activity against Escherichia coli ATCC 25922; type: functional
[20] = tested on: Pseudomonas aeruginosa; experiment: In vitro antibacterial activity against Pseudomonas aeruginosa […] 9027; type: functional
[21] = tested on: Enterococcus faecalis; experiment: In vitro antibacterial activity against Enterococcus faecalis UCMC 39690; type: functional

Structure (SMILES)	MIC [1] [µg/mL]	MIC [2] [µg/mL]	MIC [3] [µg/mL]	MIC [4] [µg/mL]	MIC [5] [µg/mL]	IC50 [6] [µM]	MIC [7] [µg/mL]	MIC [8] [µg/mL]	MIC [9] [µg/mL]	MIC [10] [µg/mL]	MIC [11] [µg/mL]	MIC [12] [µg/mL]	MIC [13] [µg/mL]	MIC [14] [µg/mL]	MIC [16] [µg/mL]	MIC [17] [µg/mL]	MIC [18] [µg/mL]	MIC [19] [µg/mL]	MIC [20] [µg/mL]	MIC [21] [µg/mL]	other results
Cc1c(N2CCc3ccccc3C2)c(N)cc2c(=O)c(C(=O)O)cn(C3CC3)c12	8 (≈ 20.5 µM)	< 0.016	> 16	0.25 (≈ 0.642 µM)	0.075 (≈ 0.193 µM)	9.24	< 0.016	< 0.016	< 0.016	2 (≈ 5.14 µM)	0.5 (≈ 1.28 µM)	0.125 (≈ 0.321 µM)	< 0.016	> 16	0.25 (≈ 0.642 µM)	0.03 (≈ 0.077 µM)	> 16	0.125 (≈ 0.321 µM)	8 (≈ 20.5 µM)	0.125 (≈ 0.321 µM)	MIC [15]: 0.998 µg/mL (≈ 2.56 µM)
Cc1c(N2CCCCC2)c(F)cc2c(=O)c(C(=O)O)cn(C3CC3)c12	2 (≈ 5.81 µM)	< 0.016	1 (≈ 2.9 µM)	< 0.016	0.022 (≈ 0.0639 µM)	6.97	< 0.016	< 0.016	< 0.016	0.125 (≈ 0.363 µM)	0.5 (≈ 1.45 µM)	< 0.016	< 0.016	16 (≈ 46.5 µM)	0.03 (≈ 0.0871 µM)	< 0.016	4 (≈ 11.6 µM)	< 0.016	1 (≈ 2.9 µM)	< 0.016	MIC [15]: 0.29 µg/mL (≈ 0.842 µM)
Cc1c(N2CCSCC2)ccc2c(=O)c(C(=O)O)cn(C3CC3)c12	16 (≈ 46.5 µM)	> 0.016	4 (≈ 11.6 µM)	1 (≈ 2.9 µM)			> 0.016	< 0.016	> 0.016	2 (≈ 5.81 µM)	1 (≈ 2.9 µM)	0.25 (≈ 0.726 µM)	0.5 (≈ 1.45 µM)	> 16	1 (≈ 2.9 µM)	< 0.016	16 (≈ 46.5 µM)	0.125 (≈ 0.363 µM)	4 (≈ 11.6 µM)	0.5 (≈ 1.45 µM)	
Cc1c(N2CC(C)OC(C)C2)ccc2c(=O)c(C(=O)O)cn(C3CC3)c12 (configuration not stated)	> 16	< 0.016	16 (≈ 44.9 µM)	0.5 (≈ 1.4 µM)			0.03 (≈ 0.0842 µM)	1 (≈ 2.81 µM)	0.125 (≈ 0.351 µM)	1 (≈ 2.81 µM)	2 (≈ 5.61 µM)	0.5 (≈ 1.4 µM)	0.5 (≈ 1.4 µM)	> 16	1 (≈ 2.81 µM)	0.125 (≈ 0.351 µM)	16 (≈ 44.9 µM)	1 (≈ 2.81 µM)	16 (≈ 44.9 µM)	0.25 (≈ 0.701 µM)	
Cc1c(N2CCCCC2)ccc2c(=O)c(C(=O)O)cn(C3CC3)c12	8 (≈ 24.5 µM)	< 0.016	4 (≈ 12.3 µM)	< 0.016	0.052 (≈ 0.159 µM)	10.1	< 0.016	< 0.016	< 0.016	1 (≈ 3.06 µM)	0.25 (≈ 0.766 µM)	0.03 (≈ 0.0919 µM)	0.03 (≈ 0.0919 µM)	> 16	1 (≈ 3.06 µM)	< 0.016	16 (≈ 49 µM)	0.03 (≈ 0.0919 µM)	4 (≈ 12.3 µM)	0.03 (≈ 0.0919 µM)	MIC [15]: 0.534 µg/mL (≈ 1.64 µM)
Cc1c(N2CCC(O)CC2)ccc2c(=O)c(C(=O)O)cn(C3CC3)c12	8 (≈ 23.4 µM)	< 0.016	2 (≈ 5.84 µM)	0.25 (≈ 0.73 µM)			< 0.016	0.25 (≈ 0.73 µM)	< 0.016	0.5 (≈ 1.46 µM)	0.25 (≈ 0.73 µM)	0.06 (≈ 0.175 µM)	2 (≈ 5.84 µM)	> 16	0.5 (≈ 1.46 µM)	< 0.016	16 (≈ 46.7 µM)	0.06 (≈ 0.175 µM)	2 (≈ 5.84 µM)	0.125 (≈ 0.365 µM)	
Cc1c(N2CCC(C)CC2)ccc2c(=O)c(C(=O)O)cn(C3CC3)c12	4 (≈ 11.8 µM)	< 0.016	2 (≈ 5.88 µM)	0.25 (≈ 0.734 µM)			< 0.016	< 0.016	< 0.016	1 (≈ 2.94 µM)	0.25 (≈ 0.734 µM)	0.06 (≈ 0.176 µM)	0.125 (≈ 0.367 µM)	> 16	0.5 (≈ 1.47 µM)	< 0.016	8 (≈ 23.5 µM)	0.03 (≈ 0.0881 µM)	2 (≈ 5.88 µM)	0.03 (≈ 0.0881 µM)	
Cc1c(N2CCc3ccccc3C2)ccc2c(=O)c(C(=O)O)cn(C3CC3)c12	> 16	0.03 (≈ 0.0801 µM)	> 16	1 (≈ 2.67 µM)	0.272 (≈ 0.726 µM)	20.8	0.25 (≈ 0.668 µM)	0.06 (≈ 0.16 µM)	< 0.016	2 (≈ 5.34 µM)	0.03 (≈ 0.0801 µM)	2 (≈ 5.34 µM)	0.25 (≈ 0.668 µM)	> 16	1 (≈ 2.67 µM)	0.125 (≈ 0.334 µM)	> 16	1 (≈ 2.67 µM)	> 16	0.5 (≈ 1.34 µM)	MIC [15]: 1.85 µg/mL (≈ 4.94 µM)
CC(=O)O.Cc1c(N2CC[C@@H](N)C2)ccc2c(=O)c(C(=O)O)cn(C3CC3)c12	2	0.125	0.06	0.25			0.25	0.6	0.125	4	0.25	0.016	0.25	16	0.5	0.016	0.5	0.03	0.125	0.25	
Cc1c(N2CCN(C)CC2)ccc2c(=O)c(C(=O)O)cn(C3CC3)c12	8 (≈ 23.4 µM)	0.25 (≈ 0.732 µM)	2 (≈ 5.86 µM)	2 (≈ 5.86 µM)	1.09 (≈ 3.19 µM)	83.5	0.5 (≈ 1.46 µM)	0.06 (≈ 0.176 µM)	0.25 (≈ 0.732 µM)	8 (≈ 23.4 µM)	0.25 (≈ 0.732 µM)	0.06 (≈ 0.176 µM)	2 (≈ 5.86 µM)	> 16	2 (≈ 5.86 µM)	< 0.016	16 (≈ 46.9 µM)	0.06 (≈ 0.176 µM)	2 (≈ 5.86 µM)	1 (≈ 2.93 µM)	Mean MIC [5]: 0.609 µg/mL
Cc1c(N2CCN(C)CC2)c(F)cc2c(=O)c(C(=O)O)cn(C3CC3)c12	0.5 (≈ 1.39 µM)	0.06 (≈ 0.167 µM)	0.5 (≈ 1.39 µM)	1 (≈ 2.78 µM)	0.271 (≈ 0.754 µM)	16.4	0.125 (≈ 0.348 µM)	< 0.016	0.125 (≈ 0.348 µM)	2 (≈ 5.56 µM)	0.125 (≈ 0.348 µM)	< 0.016	0.25 (≈ 0.696 µM)	4 (≈ 11.1 µM)	0.25 (≈ 0.696 µM)	< 0.016	0.2 (≈ 0.556 µM)	< 0.016	0.5 (≈ 1.39 µM)	0.271 (≈ 0.754 µM)	MIC [15]: 0.155 µg/mL (≈ 0.431 µM)
Cc1c(N2CCC(N)C2)ccc2c(=O)c(C(=O)O)cn(C3CC3)c12 (configuration not stated)	1 (≈ 3.05 µM)	0.125 (≈ 0.382 µM)	0.5 (≈ 1.53 µM)	0.06 (≈ 0.183 µM)			0.25 (≈ 0.764 µM)	< 0.016	0.125 (≈ 0.382 µM)	4 (≈ 12.2 µM)	< 0.016	< 0.016	1 (≈ 3.05 µM)	16 (≈ 48.9 µM)	1 (≈ 3.05 µM)	< 0.016	1 (≈ 3.05 µM)	< 0.016	0.125 (≈ 0.382 µM)	0.5 (≈ 1.53 µM)	
Cc1c(N2CC(C)CC(C)C2)ccc2c(=O)c(C(=O)O)cn(C3CC3)c12 (configuration not stated)	> 16	< 0.016	16 (≈ 45.1 µM)	0.5 (≈ 1.41 µM)			< 0.016	0.25 (≈ 0.705 µM)	< 0.016	4 (≈ 11.3 µM)	4 (≈ 11.3 µM)	1 (≈ 2.82 µM)	2 (≈ 5.64 µM)	> 16	1 (≈ 2.82 µM)	0.5 (≈ 1.41 µM)	> 16	1 (≈ 2.82 µM)	8 (≈ 22.6 µM)	1 (≈ 2.82 µM)	
Cc1c(N2CCCC(CO)C2)ccc2c(=O)c(C(=O)O)cn(C3CC3)c12 (configuration not stated)	8 (≈ 22.4 µM)	< 0.016	4 (≈ 11.2 µM)	0.5 (≈ 1.4 µM)			< 0.016	< 0.016	< 0.016	1 (≈ 2.81 µM)	0.5 (≈ 1.4 µM)	0.25 (≈ 0.701 µM)	0.5 (≈ 1.4 µM)	16 (≈ 44.9 µM)	0.5 (≈ 1.4 µM)	0.06 (≈ 0.168 µM)	16 (≈ 44.9 µM)	0.125 (≈ 0.351 µM)	4 (≈ 11.2 µM)	0.25 (≈ 0.701 µM)	
CN1CCN(c2cc3c(cc2F)c(=O)c(C(=O)O)cn3C2CC2)CC1	0.5 (≈ 1.45 µM)	0.125 (≈ 0.362 µM)	0.25 (≈ 0.724 µM)	0.5 (≈ 1.45 µM)	0.648 (≈ 1.88 µM)	4.34	1 (≈ 2.9 µM)	< 0.016	0.125 (≈ 0.362 µM)	16 (≈ 46.3 µM)	< 0.016	< 0.016	2 (≈ 5.79 µM)	> 16	0.5 (≈ 1.45 µM)	< 0.016	0.25 (≈ 0.724 µM)	< 0.016	0.5 (≈ 1.45 µM)	0.25 (≈ 0.724 µM)	MIC [15]: 0.11 µg/mL (≈ 0.318 µM)
Cc1c(N2CCNCC2)ccc2c(=O)c(C(=O)O)cn(C3CC3)c12.Cl	2	0.25	0.25	2			0.5	0.03	0.5	16	0.26	0.03	2	> 16	2	< 0.016	2	0.03	0.125	2	
O=C(O)c1cn(C2CC2)c2cc(N3CCNCC3)c(F)cc2c1=O [CIPROFLOXACIN]	0.5 (≈ 1.51 µM)	0.25 (≈ 0.754 µM)	0.06 (≈ 0.181 µM)	1 (≈ 3.02 µM)	0.917 (≈ 2.77 µM)		1 (≈ 3.02 µM)	< 0.016	0.5 (≈ 1.51 µM)	> 16		< 0.016	0.5 (≈ 1.51 µM)		1 (≈ 3.02 µM)	< 0.016	1 (≈ 3.02 µM)	< 0.016	0.06 (≈ 0.181 µM)	0.5 (≈ 1.51 µM)	MIC [15]: 0.083 µg/mL (≈ 0.25 µM)

— ChEMBL document CHEMBL1129595, “Potent 6-desfluoro-8-methylquinolones as new lead compounds in antibacterial chemotherapy” (J Med Chem, 1996)
